Reference: patent US20240382451A1, “ORGANONITRO AND SULFOXYALKYL ORGANONITRO COMPOUNDS FOR USE IN TREATING MEDICAL DISORDERS” (EpicentRx, Inc., priority 2021, published 2024)

Key:
[1] = test system: 3×Tg-AD mice; assay: Oxidative stress markers and amyloid plaque density in aged 3×Tg-AD mice; type: in vivo, mouse; details: 2 mg/kg intraperitoneal once weekly for 3 months
Protocol: (§1) The neuroprotective effects of RRx-001 administration on Alzheimer's Disease (AD), which has been linked to aberrant NLR family pyrin domain containing 3 (NLRP3) activation, were evaluated via intraperitoneal injection once weekly for 3 months on aged (18-21 months old) homozygous triple transgenic AD mouse model (3×Tg-AD, Jackson Labs). 3×Tg mice received either 2 mg/kg RRx-001 (n=3) or vehicle (n=3), and were evaluated against control non-transgenic mice (NonTg, Jackson Labs) that were untreated (n=3).

[2] = test system: bone marrow derived macrophages (BMDMs); assay: LPS-primed bone marrow derived macrophages: cytokine expression, IL-1β release, cytosolic Ca2+; type: cell-based; details: BMDMs primed with LPS 50 ng/mL for 30 minutes, then 0.5 μM RRx-001 for 4 hours
Protocol: Bone marrow derived macrophages (BMDMs) were primed with LPS (50 ng/mL) for 30 minutes before being treated with RRx-001 (0.5 μM) for 4 hours. FIG. 4A depicts the expression levels of IFN-γ, IL-12, TNF-α, and IL-1β from the three groups: (i) control (not primed with LPS), (ii) LPS+vehicle (primed with LPS but not treated with RRx-001), (iii) and LPS+RRx-001 (primed with LPS and treated with RRx-001). FIG. 4B depicts IL-1β release over time from the three groups. FIG. 4C depicts cytosolic Ca^2+ levels over time for the three groups.

[3] = test system: bone marrow derived macrophages (BMDMs); assay: DSS-primed bone marrow derived macrophages: IL-1β release; type: cell-based; details: BMDMs primed with DSS, 0.5 μM or 1.0 μM RRx-001
Protocol: FIG. 5 depicts IL-1β release from the four groups of bone marrow derived macrophages (BMDMs): (i) control (not primed with DSS). (ii) DSS+vehicle (primed with DS but not treated with RRx-001), (iii) DSS+RRx-001 (0.5 μM; primed with DSS and treated with 0.5 μM RRx-001), and (iv) DSS+RRx-001 (1.0 μM; primed with DSS and treated with 1.0 μM RRx-001).

[4] = test system: 3×Tg-AD mice; assay: Morris water maze test in aged triple transgenic Alzheimer's disease mouse model; type: in vivo; details: 2 mg/kg intraperitoneal once weekly for 3 months
Protocol: as §1
Five days after the last treatment, the mice were tested using a Morris water maze test. The next week, the mice were exposed to an elevated maze test. The latency to reach the exact hidden platform location on the Morris water maze test (FIG. 1A) and the number of crossings of the platform target quadrant (FIG. 1B) were recorded.

[5] = test system: C57BL/6 mice; assay: Dextran sulfate sodium (DSS) induced colitis in mice; type: in vivo, mouse; details: 2% or 4% DSS for 9 days, 5 or 10 mg/kg
Text: Colitis was induced in C57BL/6 mice with 2% or 4% dextran sulfate sodium (DSS; 40 kDa) dissolved in drinking water given ad libitum for 9 days. Control mice were given filtered water. FIG. 6A depicts changes in mice body weight over a 9-day period for each of the three groups: (i) control (filtered water), (ii) 2% DSS, and (iii) 4% DSS. FIG. 6B depicts colon length of mice in each group after the 9-day period.
FIGS. 7A and 7B depict changes in mice body weight over a 9-day period for each of the six groups: (i) 2% DSS+vehicle, (ii) 2% DSS+RRx-001 (5 mg/kg), and (iii) 2% DSS+RRx-001 (10 mg/kg) in FIG. 7A; and (iv) 4% DSS+vehicle, (v) 4% DSS+RRx-001 (5 mg/kg), and (vi) 4% DSS+RRx-001 (10 mg/kg) in FIG. 7B. While the 2% or 4% DSS was given ad libitum for 9 days as described above, vehicle, 5 mg/kg RRx-001, or 10 mg/kg RRx-001 was given as intravascular injections of pre-mixed blood formulations every other day during the 9-day period. […] FIGS. 7C and 7D depict colon length of mice in each of the six groups. […] FIGS. 7E and 7F depict serum IL-1β levels in mice in each of the six groups. […] FIGS. 7G and 7H depict colon homogenate IL-1β levels in mice in each of the six groups. FIGS. 7I and 7J depict colon homogenate IL-1β levels relative to the average IL-1β level of the control (i.e., DSS+vehicle) in mice in each of the six groups.
FIGS. 8A and 8B depict the changes in mice body weight over the 9-day period for each of the six groups: (i) 2% DSS+vehicle. (ii) 2% DSS+RRx-001 (5 mg/kg), and (iii) 2% DSS+RRx-001 (10 mg/kg) in FIG. 8A; and (iv) 4% DSS+vehicle, (v) 4% DSS+RRx-001 (5 mg/kg), and (vi) 4% DSS+RRx-001 (10 mg/kg) in FIG. 8B. While the 2% or 4% DSS was given ad libitum for 9 days as described above, vehicle, 5 mg/kg RRx-001, or 10 mg/kg RRx-001 was given as intraperitoneal injections every other day during the 9-day period. […] FIGS. 8C and 8D depict colon length of mice in each of the six groups. […] FIGS. 8E and 8F depict serum IL-1β levels in mice in each of the six groups. […] FIGS. 8G and 8H depict colon homogenate IL-1β levels in mice in each of the six groups.

[6] = intraperitoneal injections every other day
[7] = intravascular injections of pre-mixed blood formulations every other day

In the case of `O=C(CBr)N1CC([N+](=O)[O-])([N+](=O)[O-])C1` [RRx-001, 2-bromo-1-(3,3-dinitroazetidin-1-yl)ethanone], the amyloid plaque density [1] is reported as “decrease”, the “lipid peroxidation (thiobarbituric acid-reactive substance (TBAR) levels)” value [1] is reported as “decrease” and the “reduced glutathione (GSH) compared to glutathione disulfide (GSSG)” value [1] is reported as “significant increase”. For the same compound, the “calcium accumulation in activated macrophages (cytosolic Ca2+ levels)” value [2] was “prevents calcium accumulation”, the “inflammation-driven expression of certain cytokines such as IL-1β” value [2] was “significantly reduces” and the “inflammatory effect of DSS (IL-1β release)” value [3] was “significantly reduces”. The “spatial learning tasks (trend in latency across trials)” value [4] was “improvement”, the “latency to locate the platform on the Morris water maze test” value ([4]; vs vehicle) was “significantly reduce” and the “DSS-induced expression of colon homogenate IL-1β” value [5, 6] was “reduces”. The “DSS-induced expression of serum IL-1β” value [5, 6] was “reduces”, the “body weight loss due to DSS induced colitis” value [5, 6] was “significantly mitigates” and the “colon length reduction due to DSS induced colitis” value [5, 6] was “mitigates”. For the same compound, the “DSS-induced expression of colon homogenate IL-1β” value [5, 7] was “reduces”, the “DSS-induced expression of serum IL-1β” value [5, 7] was “reduces” and the “body weight loss due to DSS induced colitis” value [5, 7] was “significantly mitigates”. For the same compound, the “colon length reduction due to DSS induced colitis” value [5, 7] was “mitigates”.
